Results on three molecules are retold here after paper PMC4286809, “Crystallographic and spectroscopic snapshots reveal a dehydrogenase in action” (Nature Communications, 2015).

As a reminder, the Km is the concentration of substrate that gives half-maximal velocity. One may read the stoichiometry N as the number of molecules, sites or subunits per partner or assembly.

Data set [1] deals with T1, 2-aminomuconate-6-semialdehyde dehydrogenase (AMSDH) (Pseudomonas fluorescens, UniProt Q83V33, E268A).
T1 construct: gene nbaE
T1 sequence (Q83V33 1-500 E268A): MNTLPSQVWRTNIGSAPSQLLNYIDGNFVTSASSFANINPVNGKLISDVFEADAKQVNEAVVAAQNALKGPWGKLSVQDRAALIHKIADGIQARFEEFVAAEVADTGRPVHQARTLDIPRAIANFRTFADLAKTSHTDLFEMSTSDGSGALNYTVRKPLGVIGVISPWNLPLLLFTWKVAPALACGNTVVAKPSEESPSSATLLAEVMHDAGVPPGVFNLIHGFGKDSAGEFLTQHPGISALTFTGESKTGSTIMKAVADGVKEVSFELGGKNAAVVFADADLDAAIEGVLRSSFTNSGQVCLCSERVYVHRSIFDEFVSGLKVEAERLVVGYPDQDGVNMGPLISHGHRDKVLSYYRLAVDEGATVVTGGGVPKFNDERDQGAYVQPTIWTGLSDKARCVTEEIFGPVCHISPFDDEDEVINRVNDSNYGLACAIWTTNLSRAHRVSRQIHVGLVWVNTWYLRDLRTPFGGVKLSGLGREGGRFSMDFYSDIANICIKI
Kind of data set: crystal structures of thiohemiacetal (4OU2) and thioacyl (4OUB) adducts; ESI mass spectrometry; absorption titration. Format: binding.

The target in data set [2] is T2, 2-aminomuconate-6-semialdehyde dehydrogenase (AMSDH) (Pseudomonas fluorescens, UniProt Q83V33, R120A).
T2 construct: gene nbaE
T2 sequence (Q83V33 1-500 R120A): T1 sequence (Q83V33 1-500 E268A)
Kind of data set: steady-state kinetics (Km, lower bound). Format: biochemical.

Data set [3] deals with T3, 2-aminomuconate-6-semialdehyde dehydrogenase (AMSDH) (Pseudomonas fluorescens, UniProt Q83V33, R464A).
T3 construct: gene nbaE
Kind of data set: steady-state kinetics; substrate inhibition Ki (Km […]). Format: biochemical.

Data set [4] has as its target T4, 2-aminomuconate-6-semialdehyde dehydrogenase (AMSDH) (Pseudomonas fluorescens, UniProt Q83V33).
T4 construct: gene nbaE
T4 sequence (Q83V33 1-500): T1 sequence (Q83V33 1-500 E268A)
Briefly: crystal structure of co-crystallized binary complex ([…] Å). The class given is binding.

Substrate in the data set “purified protein”: O=C/C=C/C=C(/O)C(=O)O
Briefly: purified protein. Format: biochemical, Pseudomonas fluorescens. The conditions noted are these: NAD+ active site; bifurcated hydrogen bonds with Arg120 and Arg464; C6 becomes covalently bound to Cys302 in the later thioacyl intermediate (4NPI).

Data set [5] concerns the molecule itself. Briefly: crystal structure; wild-type AMSDH, ligand-free, with NAD+, with NAD+ and 2-AMS or 2-HMS, and as thioacyl intermediate; space group P212121; four polypeptides per asymmetric unit.

Bounds are passed on as bounds.

In the case of `O=C/C=C/C=C(/O)C(=O)O` [2-HMS, 2-hydroxymuconate-6-semialdehyde], the “crystal structures of thiohemiacetal (4OU2) and thioacyl (4OUB) adducts; ESI mas” value in data set [1] was “a continuous electron density between Cys302-SG and 2-HMS-C6 is observed”. Also, the Km in data set [2] was more than 446 µM. This molecule also showed a Ki in data set [3] of approximately 6 µM.
On to `NC(=O)c1ccc[n+]([C@@H]2O[C@H](COP(=O)([O-])OP(=O)(O)OC[C@H]3O[C@@H](n4cnc5c(N)ncnc54)[C@H](O)[C@@H]3O)[C@@H](O)[C@H]2O)c1` [NAD+, NAD^+], for which the “crystal structure of co-crystallized binary complex (2.00 Å)” value in data set [4] is given as “an NAD^+ molecule is present in an extended, anti-conformation in the amino-terminal, co-substrate-binding domain of each monomer”.

B1: 2-aminomuconate-6-semialdehyde dehydrogenase from Pseudomonas fluorescens, wild type (enzyme, UniProt Q83V33 1-500, looked up)
chain: T1 sequence (Q83V33 1-500 E268A)
notes: 2-aminomuconate-6-semialdehyde dehydrogenase (AMSDH), Pseudomonas fluorescens; also called AMSDH; wild-type AMSDH; source: E. coli overexpression system, purified
For B1, in the data set “purified protein”, the Km is 10.4 ± 0.2 µM. Moreover, the “stoichiometry N” value in data set [5] stood at 4.
